Measurements taken from US7674596B2 (priority 2005, dated 2010).
“Also recorded” adds a separate entry of the source.

What was measured:
Type in all cases: cell-based
[1] = target: T1, human potassium channel Kir2.1 (Homo sapiens, UniProt P63252); test: Gramicidin-perforated current-clamp measurement of membrane potential of clone #30; conditions: 100 μM barium
T1 construct: expressed in transfected cells; host or cells: HEK293 stably expressing human T-type α1H; clone #30 (HEK293-TChH-IRK2.1, KCTC 10780BP)
T1 sequence (P63252 1-427): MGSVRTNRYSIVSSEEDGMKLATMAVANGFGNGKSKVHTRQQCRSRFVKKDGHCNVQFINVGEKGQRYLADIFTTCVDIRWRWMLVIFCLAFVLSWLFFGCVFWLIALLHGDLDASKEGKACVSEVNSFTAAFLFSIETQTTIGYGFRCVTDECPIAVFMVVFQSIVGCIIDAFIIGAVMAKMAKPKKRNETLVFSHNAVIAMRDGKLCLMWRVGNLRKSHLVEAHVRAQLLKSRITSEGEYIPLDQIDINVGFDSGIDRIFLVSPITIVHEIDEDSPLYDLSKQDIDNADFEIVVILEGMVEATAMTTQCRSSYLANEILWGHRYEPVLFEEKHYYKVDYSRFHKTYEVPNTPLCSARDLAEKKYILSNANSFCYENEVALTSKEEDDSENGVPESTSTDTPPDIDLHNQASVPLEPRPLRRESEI
Experimental: (§1) The procedures and conditions of the experiment were as follows. The T-type calcium current and inwardly rectifying potassium current (referred as “IRK current” hereinafter) were recorded by the whole-cell ruptured patch-clamp method (Hamil et al., Pflugers Arch., 391:85-100, 198; Jeong and Ikeda, Neuron, 21:1201-1212, 1998), a voltage clamp technique, to confirm which clone could best express the human T-type α1H channel and human potassium channel Kir2.1. In the meantime, the resting membrane potential of the clones that were confirmed by the measurement of calcium and potassium currents was monitored by the gramicidin-perforated current-clamp method (Akaike, Prog. Biophys. Mol. Biol., 65:251-264, 1997).
(§2) The patch electrode used in the measurement above was prepared with a borosilicate glass tube (Corning, USA) by a P-97 flaming brown micro-pipette puller (Sutter Instrument, USA). […] The cell capacitance and series resistance were adjusted to more than 80% by using Axopatch-1D (Axon Instruments, USA) or EPC-10 amplifier (HEKA, Germany). S4 (prepared by Dr. Stephen R. Ikeda, USA) using ITC18 (Instrutech, USA) or Pulse (HEKA, Germany) was used for the generation and data collection of the voltage-stimulating protocol. […] The results were recorded in a computer. […]
(§3) The T-type α1H channel current, activated at −50 mV and showing maximum activity at −30 mV, was recorded as well. […]

[2] = target: T1, human potassium channel Kir2.1; test: Whole-cell ruptured patch-clamp recording of inwardly rectifying potassium (IRK) current in clone #30; parameters: dose or concentration left out as unconfirmed; conditions: Ba^2+, voltage clamp
Experimental: as §1, §2, §3

[3] = target: T2, T-type α1H channel (Homo sapiens, UniProt O95180); test: Fluo-3 fluorescent calcium imaging (cooled CCD) in clone #30 cells (HEK293-TChH-IRK2.1); conditions: for increase of intracellular calcium signal (fluorescent image) upon KCl depolarization: 60 mM KCl
T2 construct: expressed in transfected cells; clone #30, KCTC 10780BP
Experimental: (§4) Intracellular calcium concentrations were measured by the ratio fluorescence system (Ratiomaster, Photon Technology International, USA) installed on a fluorescent microscope (Nikon TE2000, Japan) as well as CoolSNAP CCD imaging system (Loafer Scientific, USA). Particularly, Fura-2/AM or Fluo-3 (Molecular Probes, USA) was added up to 5 μM to cells cultured on a cover slip, followed by loading at room temperature for 30-60 minutes with the light blocked. After the loading, the cells were washed twice with an extracellular flushing medium, and then the cover slip, on which the cells were stuck, was put on a perfusion chamber on the microscope. In the case of Fura-2/AM, the changes in the intracellular calcium (Ca^2+) concentration were measured using a photomultiplier (PM) tube in the ratio of fluorescence (F340/F380 t) emitted at 510 nm when 340 nm and 380 nm were used for excitation respectively. When Fluo-3 was used, fluorescent ratios were not measured but the fluorescent image emitted at 525 nm was recorded and captured by a cooled CCD, which was then analyzed by the Metaimage 6.1 program (Imaging Corporation, USA).
To measure fluorescent calcium image, Fluo-3 was loaded to clone #30 cells.

[4] = target: T2, T-type α1H channel; test: Fura-2/AM ratio fluorescence (F340/F380) calcium assay in single cell of clone #30 (HEK293-TChH-IRK2.1) depolarized by KCl; conditions: depolarization by 60 mM KCl, pre-treatment with mibefradil (3 μM elsewhere in the source)
Experimental: as §4

T2 sequence (O95180 whole entry): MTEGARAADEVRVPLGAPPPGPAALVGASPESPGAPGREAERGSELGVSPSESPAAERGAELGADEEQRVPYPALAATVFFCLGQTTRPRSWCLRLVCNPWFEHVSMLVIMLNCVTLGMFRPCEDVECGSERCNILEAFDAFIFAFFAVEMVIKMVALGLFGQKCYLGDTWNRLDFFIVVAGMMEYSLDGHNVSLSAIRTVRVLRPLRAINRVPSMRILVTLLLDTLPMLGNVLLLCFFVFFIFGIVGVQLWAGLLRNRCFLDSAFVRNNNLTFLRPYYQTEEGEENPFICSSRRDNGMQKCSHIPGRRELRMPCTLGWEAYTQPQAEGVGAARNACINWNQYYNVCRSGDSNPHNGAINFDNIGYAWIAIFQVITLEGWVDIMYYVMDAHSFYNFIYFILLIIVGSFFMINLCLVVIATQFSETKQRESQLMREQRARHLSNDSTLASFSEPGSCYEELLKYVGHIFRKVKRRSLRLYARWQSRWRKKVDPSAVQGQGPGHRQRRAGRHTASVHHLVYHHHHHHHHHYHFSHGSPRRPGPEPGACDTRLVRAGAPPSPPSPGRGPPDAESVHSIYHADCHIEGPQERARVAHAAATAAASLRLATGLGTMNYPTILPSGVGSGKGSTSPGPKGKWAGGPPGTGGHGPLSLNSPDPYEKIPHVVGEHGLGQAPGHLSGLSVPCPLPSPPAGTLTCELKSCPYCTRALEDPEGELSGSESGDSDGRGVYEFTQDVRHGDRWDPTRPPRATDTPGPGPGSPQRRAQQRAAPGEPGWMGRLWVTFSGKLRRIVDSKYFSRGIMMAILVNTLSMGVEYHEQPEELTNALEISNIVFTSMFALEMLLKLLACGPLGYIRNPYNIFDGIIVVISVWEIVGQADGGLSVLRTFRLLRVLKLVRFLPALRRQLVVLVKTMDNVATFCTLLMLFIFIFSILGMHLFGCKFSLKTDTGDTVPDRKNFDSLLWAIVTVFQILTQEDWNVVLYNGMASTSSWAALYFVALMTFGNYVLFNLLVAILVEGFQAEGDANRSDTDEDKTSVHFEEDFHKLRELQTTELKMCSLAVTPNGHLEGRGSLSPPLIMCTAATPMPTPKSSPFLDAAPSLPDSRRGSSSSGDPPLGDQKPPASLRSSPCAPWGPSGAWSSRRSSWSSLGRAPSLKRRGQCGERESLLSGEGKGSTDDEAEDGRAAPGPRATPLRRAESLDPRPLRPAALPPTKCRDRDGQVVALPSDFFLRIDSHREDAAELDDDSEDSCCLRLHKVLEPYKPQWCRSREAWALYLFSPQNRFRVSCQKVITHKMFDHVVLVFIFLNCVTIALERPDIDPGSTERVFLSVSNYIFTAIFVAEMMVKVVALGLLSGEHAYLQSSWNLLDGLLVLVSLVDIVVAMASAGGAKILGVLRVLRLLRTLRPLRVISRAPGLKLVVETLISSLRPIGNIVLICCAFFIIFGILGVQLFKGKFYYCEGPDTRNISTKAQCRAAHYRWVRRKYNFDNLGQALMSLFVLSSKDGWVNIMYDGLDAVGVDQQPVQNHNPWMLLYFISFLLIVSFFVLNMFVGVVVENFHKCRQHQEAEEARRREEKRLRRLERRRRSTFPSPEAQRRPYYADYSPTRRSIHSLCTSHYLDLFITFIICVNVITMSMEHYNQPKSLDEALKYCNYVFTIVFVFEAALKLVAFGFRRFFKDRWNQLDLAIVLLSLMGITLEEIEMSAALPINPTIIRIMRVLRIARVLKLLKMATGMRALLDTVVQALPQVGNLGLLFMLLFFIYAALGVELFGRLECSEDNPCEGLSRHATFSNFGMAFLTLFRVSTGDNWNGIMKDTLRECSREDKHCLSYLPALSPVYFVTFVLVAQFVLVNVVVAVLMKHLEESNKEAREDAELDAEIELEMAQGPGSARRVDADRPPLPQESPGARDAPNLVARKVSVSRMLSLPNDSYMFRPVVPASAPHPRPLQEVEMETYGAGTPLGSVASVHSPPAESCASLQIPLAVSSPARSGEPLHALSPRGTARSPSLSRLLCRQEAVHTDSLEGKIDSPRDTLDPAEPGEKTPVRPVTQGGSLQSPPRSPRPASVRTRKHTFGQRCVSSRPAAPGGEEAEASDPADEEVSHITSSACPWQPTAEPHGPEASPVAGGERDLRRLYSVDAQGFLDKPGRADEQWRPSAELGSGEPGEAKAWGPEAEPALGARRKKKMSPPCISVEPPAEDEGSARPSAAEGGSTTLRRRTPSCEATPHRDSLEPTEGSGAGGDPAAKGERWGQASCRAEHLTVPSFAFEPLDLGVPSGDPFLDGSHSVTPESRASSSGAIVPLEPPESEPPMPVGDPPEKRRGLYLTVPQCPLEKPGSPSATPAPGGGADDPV

SMILES: [Ba+2] [Ba^2+, barium]
- membrane potential response [1]: Ca^2+ spikes or action potentials were induced with depolarization
- IRK current [2]: blocked

SMILES: [Ni+2] [Ni^2+, nickel (Ni^2+)]
- increase of intracellular calcium signal (fluorescent image) upon KCl depolarization ([3]; pre-treatment with 100 μM nickel): completely inhibited
- increase of intracellular calcium signal (fluorescent image) upon KCl depolarization ([3]; pre-treatment with 100 mM Ni^2+): completely inhibited

SMILES: COCC(=O)O[C@]1(CCN(C)CCCc2nc3ccccc3[nH]2)CCc2cc(F)ccc2[C@@H]1C(C)C [mibefradil]
- increase of intracellular calcium signal (fluorescent image) upon KCl depolarization ([3]; pre-treatment with mibefradil (3 μM elsewhere in the source)): completely inhibited; also recorded: completely blocked
- intracellular calcium level at non-depolarized resting phase (number of red cells) ([3]; no KCl, mibefradil (3 μM elsewhere in the source)): reduced remarkably; also recorded: remarkably reduced
- increase in intracellular calcium (F340/F380 ratio) by influx through T-type α1H channels [4]: completely blocked; also recorded: completely inhibited
